The text below walks through data of patent US20250195513A1, “DEGRADATION OF IRAK4 BY CONJUGATION OF IRAK4 INHIBITORS WITH E3 LIGASE LIGAND AND METHODS OF USE” (BeiGene, Ltd., priority 2022, published 2025).

For experiment [1], the target named is T1, IRAK4 (Homo sapiens, UniProt Q9NWZ3).
T1 construct: endogenous in cells; host or cells: Karpas299
T1 sequence (Q9NWZ3 1-460): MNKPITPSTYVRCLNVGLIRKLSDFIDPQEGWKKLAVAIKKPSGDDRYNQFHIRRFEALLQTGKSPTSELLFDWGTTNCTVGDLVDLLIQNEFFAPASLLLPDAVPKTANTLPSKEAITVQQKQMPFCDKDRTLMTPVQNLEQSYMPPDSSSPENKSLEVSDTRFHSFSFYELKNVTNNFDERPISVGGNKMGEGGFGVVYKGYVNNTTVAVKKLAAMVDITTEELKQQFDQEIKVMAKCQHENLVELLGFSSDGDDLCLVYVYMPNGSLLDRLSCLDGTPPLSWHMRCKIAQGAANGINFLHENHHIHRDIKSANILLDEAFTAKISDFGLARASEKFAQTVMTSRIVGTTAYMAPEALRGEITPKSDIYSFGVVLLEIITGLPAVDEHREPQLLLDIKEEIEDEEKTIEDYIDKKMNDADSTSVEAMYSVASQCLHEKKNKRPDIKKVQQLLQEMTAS
As to the kind of experiment: IRAK4 Degradation Assay (Karpas299, HTRF/TR-FRET). Type of experiment: cell-based. Conditions: Karpas-299 cells, 24 h treatment; for Dmax: read-out: IRAK4 in Karpas-299 (24 h) Dmax (%); for DC50: read-out: IRAK4 in Karpas-299 (24 h) DC50. The method in brief: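 Karpas299 cells at 0.2 million per well were exposed to serially diluted compounds for 24 h or 5 h, then lysed. IRAK4 remaining in lysates was quantified by HTRF (665/620 nm) after overnight antibody incubation at room temperature. Percent degradation was fitted to a four-parameter curve to give IC50 (DC50).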

In experiment [2] the target is T1, IRAK4. In words: IRAK4 Degradation Assay with Human Serum (Karpas299, HTRF/TR-FRET). The following applies: Karpas-299 in human serum, 24 hrs treatment; for DC50: read-out: IRAK4 degradtion with human serum assay DC50; for Dmax: read-out: IRAK4 degradtion with human serum assay Dmax (%). Type of experiment: cell-based. The method, boiled down: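 Karpas299 cells in human AB serum (0.2 million/well) treated with serial compound dilutions for 24 h. After lysis, IRAK4 quantified by HTRF (overnight antibody incubation at room temperature, 665/620 nm read). Degradation percentage fitted to four-parameter curve to give DC50.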
Background: In TR-FRET formats the signal depends on donor and acceptor labels being close together.

Where [3] appears, read: maximum percentage of degradation.

Structures are written as SMILES.

For `CC(C)(O)c1cc2nn([C@H]3CC[C@H](CN4CCN(C5CN(c6cc(F)c([C@H]7CCC(=O)NC7=O)c(F)c6)C5)CC4)CC3)cc2cc1NC(=O)c1ccc2cc(C#N)cnn12` [Example 421, 3-cyano-N-(2-((1r,4r)-4-((4-(1-(4-((R)-2,6-dioxopiperidin-3-yl)-3,5-difluorophenyl)azetidin-3-yl)piperazin-1-yl)methyl)cyclohexyl)-6-(2-hydroxypropan-2-yl)-2H-indazol-5-yl)pyrrolo[1,2-b]pyridazine-7-carboxamide], the Dmax (as a rule, the largest share of the target that was removed) on IRAK4 [1] (setting [3]) worked out at 95%; at IRAK4 [2] it was 97%. Also, the DC50 – broadly, the concentration at which degradation of the target reaches its halfway point – on IRAK4 [1] was determined as 0.8 nM; at IRAK4 [2], 15 nM.
For `CC(C)(O)c1cc2nn([C@H]3CC[C@H](N4CCN(CC5CN(c6cc(F)c([C@H]7CCC(=O)NC7=O)c(F)c6)C5)CC4)CC3)cc2cc1NC(=O)c1coc2cccnc12` [Example 403, N-(2-((1r,4r)-4-(4-((1-(4-((R)-2,6-dioxopiperidin-3-yl)-3,5-difluorophenyl)azetidin-3-yl)methyl)piperazin-1-yl)cyclohexyl)-6-(2-hydroxypropan-2-yl)-2H-indazol-5-yl)furo[3,2-b]pyridine-3-carboxamide], the results for the Dmax at IRAK4 [1] (setting [3]) and on IRAK4 [2] were 96% and 99%, respectively. Further, the DC50 on IRAK4 [1] worked out at 0.7 nM; on IRAK4 [2] it was 3.5 nM.
The like results for `CC(C)(O)c1cc2nn([C@H]3CC[C@H](N4CCN([C@@H]5CCN(c6cc(F)c(C7CCC(=O)NC7=O)c(F)c6)C5)CC4)CC3)cc2cc1NC(=O)c1ccc2cc(C#N)cnn12` (stereo partly drawn) [Example 396, 3-cyano-N-(2-((1R,4r)-4-(4-((3R)-1-(4-(2,6-dioxopiperidin-3-yl)-3,5-difluorophenyl)pyrrolidin-3-yl)piperazin-1-yl)cyclohexyl)-6-(2-hydroxypropan-2-yl)-2H-indazol-5-yl)pyrrolo[1,2-b]pyridazine-7-carboxamide] were, in that order, 98%, 95%, 0.8 nM and 34 nM.
Regarding `CC(C)(O)c1cc2nn([C@H]3CC[C@H](N4CCN([C@@H]5CCN(c6ccc(N7CCC(=O)NC7=O)cc6)C5)CC4)CC3)cc2cc1NC(=O)c1ccc2cc(C#N)cnn12` [Example 294, 3-cyano-N-(2-((1R,4r)-4-(4-((R)-1-(4-(2,4-dioxotetrahydropyrimidin-1(2H)-yl)phenyl)pyrrolidin-3-yl)piperazin-1-yl)cyclohexyl)-6-(2-hydroxypropan-2-yl)-2H-indazol-5-yl)pyrrolo[1,2-b]pyridazine-7-carboxamide], the Dmax at IRAK4 [1] (setting [3]) stood at 97%; on IRAK4 [2], 98%. For the same compound, the DC50 was 3.4 nM at IRAK4 [1] and 14 nM on IRAK4 [2].
As for `CC(C)(O)c1cc2nn([C@H]3CC[C@H](N4CCN(C(=O)[C@@H]5CCN(c6ccc(N7CCC(=O)NC7=O)cc6)C5)CC4)CC3)cc2cc1NC(=O)c1ccc2cc(C#N)cnn12` [Example 263, 3-cyano-N-(2-((1R,4r)-4-(4-((R)-1-(4-(2,4-dioxotetrahydropyrimidin-1(2H)-yl)phenyl)pyrrolidine-3-carbonyl)piperazin-1-yl)cyclohexyl)-6-(2-hydroxypropan-2-yl)-2H-indazol-5-yl)pyrrolo[1,2-b]pyridazine-7-carboxamide], the results for the Dmax on IRAK4 [1] (setting [3]) and on IRAK4 [2] were 96% and 99%, respectively. The DC50 on IRAK4 [1] worked out at 2.6 nM; at IRAK4 [2] it was 15 nM.
On to `C[C@H]1CN([C@H]2CC[C@H](n3cc4cc(NC(=O)c5ccc6cc(C#N)cnn56)c(C(C)(C)O)cc4n3)CC2)CCN1C(=O)C1CN(c2cc(F)c(N3CCC(=O)NC3=O)c(F)c2)C1` [Example 312, 3-cyano-N-(2-((1S,4r)-4-((S)-4-(1-(4-(2,4-dioxotetrahydropyrimidin-1(2H)-yl)-3,5-difluorophenyl)azetidine-3-carbonyl)-3-methylpiperazin-1-yl)cyclohexyl)-6-(2-hydroxypropan-2-yl)-2H-indazol-5-yl)pyrrolo[1,2-b]pyridazine-7-carboxamide], for which the Dmax at IRAK4 [1] (setting [3]) amounted to 97%; at IRAK4 [2], 99%. In addition, the DC50 on IRAK4 [1] came to 2.4 nM; at IRAK4 [2], 34 nM.
For the compound `CC(C)(O)c1cc2nn(C34CC(N5CCN(CC6CCN(c7ccc8c(c7)CN(C7CCC(=O)NC7=O)C8=O)CC6)CC5)(C3)C4)cc2cc1NC(=O)c1ccc2cc(C#N)cnn12` (stereo not drawn) [Example 401, 3-cyano-N-(2-(3-(4-((1-(2-(2,6-dioxopiperidin-3-yl)-1-oxoisoindolin-5-yl)piperidin-4-yl)methyl)piperazin-1-yl)bicyclo[1.1.1]pentan-1-yl)-6-(2-hydroxypropan-2-yl)-2H-indazol-5-yl)pyrrolo[1,2-b]pyridazine-7-carboxamide], the Dmax at IRAK4 [1] (setting [3]) and on IRAK4 [2] was 94% in each case. The figures for the DC50 on IRAK4 [1] and on IRAK4 [2] were 1.2 nM and 7.4 nM, respectively.
On to `CC(C)(O)c1cc2nn([C@H]3CC[C@H](N4CCN(C[C@H]5C[C@H](c6cc(F)c([C@H]7CCC(=O)NC7=O)c(F)c6)C5)CC4)CC3)cc2cc1NC(=O)c1ccc2cc(C#N)cnn12` [Example 382, 3-cyano-N-(2-((1R,4r)-4-(4-(((1R,3R)-3-(4-((R)-2,6-dioxopiperidin-3-yl)-3,5-difluorophenyl)cyclobutyl)methyl)piperazin-1-yl)cyclohexyl)-6-(2-hydroxypropan-2-yl)-2H-indazol-5-yl)pyrrolo[1,2-b]pyridazine-7-carboxamide], for which the Dmax at IRAK4 [1] (setting [3]) was 98%; on IRAK4 [2], 96%. The values for the DC50 at IRAK4 [1] and on IRAK4 [2] were 0.4 nM and 11 nM, respectively.
As to `C[C@@H]1CN([C@H]2C[C@H](c3cc(F)c([C@H]4CCC(=O)NC4=O)c(F)c3)C2)CCN1[C@H]1CC[C@H](n2cc3cc(NC(=O)c4ccc5cc(C#N)cnn45)c(C(C)(C)O)cc3n2)CC1` [Example 366, 3-cyano-N-(2-((1R,4r)-4-((R)-4-((1R,3R)-3-(4-((R)-2,6-dioxopiperidin-3-yl)-3,5-difluorophenyl)cyclobutyl)-2-methylpiperazin-1-yl)cyclohexyl)-6-(2-hydroxypropan-2-yl)-2H-indazol-5-yl)pyrrolo[1,2-b]pyridazine-7-carboxamide], the results for the Dmax at IRAK4 [1] (setting [3]) and on IRAK4 [2] were 98% and 97%, respectively. The DC50 at IRAK4 [1] is 1.4 nM; on IRAK4 [2] it was 14 nM.
Regarding `CC(C)(O)c1cc2nn([C@H]3CC[C@H](N4CCN(CC5CN(c6cc(F)c([C@H]7CCC(=O)NC7=O)c(F)c6)C5)C[C@@H]4CO)CC3)cc2cc1NC(=O)c1ccc2cc(C#N)cnn12` [Example 400, 3-cyano-N-(2-((1R,4r)-4-((R)-4-((1-(4-((R)-2,6-dioxopiperidin-3-yl)-3,5-difluorophenyl)azetidin-3-yl)methyl)-2-(hydroxymethyl)piperazin-1-yl)cyclohexyl)-6-(2-hydroxypropan-2-yl)-2H-indazol-5-yl)pyrrolo[1,2-b]pyridazine-7-carboxamide], the Dmax at IRAK4 [1] (setting [3]) and on IRAK4 [2] was 97% throughout. Also, the DC50 stood at 0.5 nM on IRAK4 [1] and 3.8 nM at IRAK4 [2].
With `CC(C)(O)c1cc2nn([C@H]3C[C@H](N4CCN(C(=O)[C@@H]5CCN(c6cc(F)c([C@H]7CCC(=O)NC7=O)c(F)c6)C5)CC4)C3)cc2cc1NC(=O)c1ccc2cc(C#N)cnn12` [Example 329, 3-cyano-N-(2-((1R,3r)-3-(4-((R)-1-(4-((R)-2,6-dioxopiperidin-3-yl)-3,5-difluorophenyl)pyrrolidine-3-carbonyl)piperazin-1-yl)cyclobutyl)-6-(2-hydroxypropan-2-yl)-2H-indazol-5-yl)pyrrolo[1,2-b]pyridazine-7-carboxamide], the “IRAK4 in Karpas-299 (24 h) Dmax (%)” value at IRAK4 [1] (setting [3]) worked out at 96%. At IRAK4 [1], the DC50 was 0.8 nM. For the same compound, at IRAK4 [2], the “IRAK4 degradtion with human serum assay Dmax (%)” value is listed as 98% and the DC50 stood at 19 nM.
For `CC(C)(O)c1cc2nn([C@H]3CC[C@H](C4CCN(C5CCN(c6cc(F)c([C@H]7CCC(=O)NC7=O)c(F)c6)CC5)CC4)CC3)cc2cc1NC(=O)c1ccc2cc(C#N)cnn12` [Example 409, 3-cyano-N-(2-((1r,4r)-4-(1′-(4-((R)-2,6-dioxopiperidin-3-yl)-3,5-difluorophenyl)-[1,4′-bipiperidin]-4-yl)cyclohexyl)-6-(2-hydroxypropan-2-yl)-2H-indazol-5-yl)pyrrolo[1,2-b]pyridazine-7-carboxamide], the values for the Dmax on IRAK4 [1] (setting [3]) and at IRAK4 [2] were 97% and 96%, respectively. Moreover, the DC50 at IRAK4 [1] came out at 3.5 nM; at IRAK4 [2] it was 10 nM.
